In patent US20230250070A1, “DIHYDROOXAZOLE AND THIOUREA DERIVATIVES MODULATING THE NLRP3 INFLAMMASOME PATHWAY” (AC IMMUNE SA, priority 2020, published 2023):

System: NLRP3 inflammasome pathway
Assay: NLRP3 inflammasome pathway activation assay, MSU stimulation, IL-1β release (AlphaLISA)
Format: cell-based
Conditions: PMA-differentiated, LPS-primed human monocyte-like cells, MSU 150 µg/ml for 3 h
Procedure: The following assays were used to determine the inhibitory activity of test compounds on the NLRP3 inflammasome pathway using common stimuli Nigericin (Invivogen) or monosodium urate crystals (MSU) (Invivogen).
Human monocyte-like cells were cultured in RPMI-1640 Glutamax medium supplemented with 10% heat inactivated FCS and 50 U/ml penicillin-streptomycin (Life Technologies).
Human monocyte-like cells were seeded at 75000 per well in a 96-well plate and were differentiated overnight into macrophages with 10 ng/ml PMA (Phorbol Myristate Acetate). The following day, medium containing 10 ng/ml LPS (Lipopolysaccharide) were added. After 3 hours of LPS priming, concentrations of test compound in the range from 100 µM to 6 nM were added 30 min prior to NLRP3 inflammasome pathway stimulation with Nigericin 3.75 µM or MSU 150 µg/ml for 3 h.
For IL-1β quantification, supernatants were analyzed using AlphaLISA kits according to the manufacturer’s instructions (Perkin Elmer AlphaLISA AL220F). Briefly, in a 384-well OptiPlate™ microplate, 5 µl of sample was mixed, with 20 µl of AlphaLISA Anti-Analyte Acceptor beads (10 µg/mL final) and Biotinylated Antibody Anti-Analyte (1 nM final). Then, incubated 60 minutes at RT, then 25 µL of 2X SA-Donor beads (40 µg/mL final) were added and incubated 30 minutes at RT in the dark. Reading was done using an EnVision-Alpha Reader (PerkinElmer).
IC50(concentration corresponding to 50% inhibition) were determined using GraphPad Prism 8.

Row | Structure (SMILES) | IC50
1 | CC(C)OC(=O)C1(c2cc(C(C)(C)O)on2)CN=C(Nc2c3c(cc4c2CCC4)CCC3)O1 (racemic) [Example 17, isopropyl 2-((1,2,3,5,6,7-hexahydro-s-indacen-4-yl)amino)-5-(5-(2-hydroxypropan-2-yl)isoxazol-3-yl)-4,5-dihydrooxazole-5-carboxylate] | < 1000 nM
2 | CC(C)(O)c1cc(C2(C(=O)OC3CCCC3)CN=C(Nc3c4c(cc5c3CCC5)CCC4)O2)no1 (racemic) [Example 19, cyclopentyl 2-((1,2,3,5,6,7-hexahydro-s-indacen-4-yl)amino)-5-(5-(2-hydroxypropan-2-yl)isoxazol-3-yl)-4,5-dihydrooxazole-5-carboxylate] | < 1000 nM
3 | CCOC(=O)C1(c2cc(C(C)C)on2)CN=C(Nc2c3c(cc4c2CCC4)CCC3)O1 (racemic) [Example 21A, ethyl 2-((1,2,3,5,6,7-hexahydro-s-indacen-4-yl)amino)-5-(5-isopropylisoxazol-3-yl)-4,5-dihydrooxazole-5-carboxylate] | < 1000 nM
4 | CCOC(=O)C1(c2ccon2)CN=C(Nc2c3c(cc4c2CCC4)CCC3)O1 (racemic) [Example 21B, ethyl 2-((1,2,3,5,6,7-hexahydro-s-indacen-4-yl)amino)-5-(isoxazol-3-yl)-4,5-dihydrooxazole-5-carboxylate] | < 1000 nM
5 | CC(C)c1cc(C2(C(=O)O)CN=C(Nc3c4c(cc5c3CCC5)CCC4)O2)no1 (racemic) [Example 27, 2-((1,2,3,5,6,7-hexahydro-s-indacen-4-yl)amino)-5-(5-isopropylisoxazol-3-yl)-4,5-dihydrooxazole-5-carboxylate] | 1000 to 10000 nM
6 | CCOC(=O)C1(c2cnc(OC)nc2)CN=C(Nc2c3c(cc4c2CCC4)CCC3)O1 (racemic) [Example 32, ethyl 2-((1,2,3,5,6,7-hexahydro-s-indacen-4-yl)amino)-5-(2-methoxypyrimidin-5-yl)-4,5-dihydrooxazole-5-carboxylate] | < 1000 nM
7 | CCOC(=O)C1(c2cccs2)CN=C(Nc2c3c(cc4c2CCC4)CCC3)O1 (racemic) [Example 34, ethyl 2-((1,2,3,5,6,7-hexahydro-s-indacen-4-yl)amino)-5-(thiophen-2-yl)-4,5-dihydrooxazole-5-carboxylate] | 1000 to 10000 nM
8 | CCOC(=O)C1(c2ccco2)CN=C(Nc2c3c(cc4c2CCC4)CCC3)O1 (racemic) [Example 36, ethyl 5-(furan-2-yl)-2-((1,2,3,5,6,7-hexahydro-s-indacen-4-yl)amino)-4,5-dihydrooxazole-5-carboxylate] | 1000 to 10000 nM
9 | CCOC(=O)C1(c2nccn2C)CN=C(Nc2c3c(c(F)c4c2CCC4)CCC3)O1 (racemic) [Example 37, ethyl 2-((8-fluoro-1,2,3,5,6,7-hexahydro-s-indacen-4-yl)amino)-5-(1-methyl-1H-imidazol-2-yl)-4,5-dihydrooxazole-5-carboxylate] | < 1000 nM
10 | CCOC(=O)C1(C2CCCO2)CN=C(Nc2c3c(cc4c2CCC4)CCC3)O1 (racemic) [Example 40, ethyl 2-((1,2,3,5,6,7-hexahydro-s-indacen-4-yl)amino)-5-(tetrahydrofuran-2-yl)-4,5-dihydrooxazole-5-carboxylate] | < 1000 nM
11 | CCOC(=O)C1(c2ccno2)CN=C(Nc2c3c(cc4c2CCC4)CCC3)O1 (racemic) [Example 44, ethyl 2-((1,2,3,5,6,7-hexahydro-s-indacen-4-yl)amino)-5-(isoxazol-5-yl)-4,5-dihydrooxazole-5-carboxylate] | < 1000 nM
12 | COC(=O)C1(c2cc(OC)on2)CN=C(Nc2c3c(cc4c2CCC4)CCC3)O1 (racemic) [Example 48, methyl 2-((1,2,3,5,6,7-hexahydro-s-indacen-4-yl)amino)-5-(5-methoxyisoxazol-3-yl)-4,5-dihydrooxazole-5-carboxylate] | < 1000 nM
13 | CCOC(=O)C1(c2cnccn2)CN=C(Nc2c3c(cc4c2CCC4)CCC3)O1 (racemic) [Example 49, ethyl 2-((1,2,3,5,6,7-hexahydro-s-indacen-4-yl)amino)-5-(pyrazin-2-yl)-4,5-dihydrooxazole-5-carboxylate] | < 1000 nM
14 | CCOC(=O)C1(c2ccn(C(C)C)n2)CN=C(Nc2c3c(cc4c2CCC4)CCC3)O1 (racemic) [Example 54, ethyl 2-((1,2,3,5,6,7-hexahydro-s-indacen-4-yl)amino)-5-(1-isopropyl-1 H-pyrazol-3-yl)-4,5-dihydrooxazole-5-carboxylate] | < 1000 nM
15 | CCOC(=O)C1(c2nc(C(C)C)cs2)CN=C(Nc2c3c(cc4c2CCC4)CCC3)O1 (racemic) [Example 55, ethyl 2-((1,2,3,5,6,7-hexahydro-s-indacen-4-yl)amino)-5-(4-isopropylthiazol-2-yl)-4,5-dihydrooxazole-5-carboxylate] | < 1000 nM
16 | CC(C)(C)OC(=O)C1(c2ccon2)CN=C(Nc2c3c(cc4c2CCC4)CCC3)O1 (racemic) [Example 60, tert-butyl 2-((1,2,3,5,6,7-hexahydro-s-indacen-4-yl)amino)-5-(isoxazol-3-yl)-4,5-dihydrooxazole-5-carboxylate] | < 1000 nM
17 | COC(=O)C1(c2nccs2)CN=C(Nc2c3c(cc4c2CCC4)CCC3)O1 (racemic) [Example 62, methyl 2-((1,2,3,5,6,7-hexahydro-s-indacen-4-yl)amino)-5-(thiazol-2-yl)-4,5-dihydrooxazole-5-carboxylate] | < 1000 nM
18 | CCCOC(=O)C1(c2nccs2)CN=C(Nc2c3c(cc4c2CCC4)CCC3)O1 (racemic) [Example 65, propyl 2-((1,2,3,5,6,7-hexahydro-s-indacen-4-yl)amino)-5-(thiazol-2-yl)-4,5-dihydrooxazole-5-carboxylate] | < 1000 nM
19 | CCCCOC(=O)C1(c2nccs2)CN=C(Nc2c3c(cc4c2CCC4)CCC3)O1 (racemic) [Example 67, butyl 2-((1,2,3,5,6,7-hexahydro-s-indacen-4-yl)amino)-5-(thiazol-2-yl)-4,5-dihydrooxazole-5-carboxylate] | < 1000 nM
20 | CCCOC(=O)C1(c2cc(C(C)(C)O)on2)CN=C(Nc2c3c(cc4c2CCC4)CCC3)O1 (racemic) [Example 74, propyl 2-((1,2,3,5,6,7-hexahydro-s-indacen-4-yl)amino)-5-(5-(2-hydroxypropan-2-yl)isoxazol-3-yl)-4,5-dihydrooxazole-5-carboxylate] | < 1000 nM
21 | CCCCOC(=O)C1(c2cc(C(C)(C)O)on2)CN=C(Nc2c3c(cc4c2CCC4)CCC3)O1 (racemic) [Example 76, butyl 2-((1,2,3,5,6,7-hexahydro-s-indacen-4-yl)amino)-5-(5-(2-hydroxypropan-2-yl)isoxazol-3-yl)-4,5-dihydrooxazole-5-carboxylate] | < 1000 nM
22 | CCCCCOC(=O)C1(c2cc(C(C)(C)O)on2)CN=C(Nc2c3c(cc4c2CCC4)CCC3)O1 (racemic) [Example 79, pentyl 2-((1,2,3,5,6,7-hexahydro-s-indacen-4-yl)amino)-5-(5-(2-hydroxypropan-2-yl)isoxazol-3-yl)-4,5-dihydrooxazole-5-carboxylate] | < 1000 nM
23 | CC(C)(C)OC(=O)C1(c2cc(C(C)(C)O)on2)CN=C(Nc2c3c(cc4c2CCC4)CCC3)O1 (racemic) [Example 82, tert-butyl 2-((1,2,3,5,6,7-hexahydro-s-indacen-4-yl)amino)-5-(5-(2-hydroxypropan-2-yl)isoxazol-3-yl)-4,5-dihydrooxazole-5-carboxylate] | < 1000 nM
24 | COC(=O)C1(c2ccon2)CN=C(Nc2c3c(cc4c2CCC4)CCC3)O1 (racemic) [Example 84, methyl 2-((1,2,3,5,6,7-hexahydro-s-indacen-4-yl)amino)-5-(isoxazol-3-yl)-4,5-dihydrooxazole-5-carboxylate] | < 1000 nM
25 | COC(=O)C1(c2ccno2)CN=C(Nc2c3c(cc4c2CCC4)CCC3)O1 (racemic) [Example 87, methyl 2-((1,2,3,5,6,7-hexahydro-s-indacen-4-yl)amino)-5-(isoxazol-5-yl)-4,5-dihydrooxazole-5-carboxylate] | < 1000 nM
26 | CCCCCOC(=O)C1(c2ccno2)CN=C(Nc2c3c(cc4c2CCC4)CCC3)O1 (racemic) [Example 92, pentyl 2-((1,2,3,5,6,7-hexahydro-s-indacen-4-yl)amino)-5-(isoxazol-5-yl)-4,5-dihydrooxazole-5-carboxylate] | < 1000 nM
27 | CCOC(=O)C1(c2nccs2)CN=C(Nc2c3c(cc4c2CCC4)CCC3)O1 (single isomer, unassigned) [Example 21, ethyl 2-((1,2,3,5,6,7-hexahydro-s-indacen-4-yl)amino)-5-(thiazol-2-yl)-4,5-dihydrooxazole-5-carboxylate] | < 1000 nM
28 | CCOC(=O)C1(c2ccns2)CN=C(Nc2c3c(cc4c2CCC4)CCC3)O1 (single isomer, unassigned) [Example 43, ethyl 2-((1,2,3,5,6,7-hexahydro-s-indacen-4-yl)amino)-5-(isothiazol-5-yl)-4,5-dihydrooxazole-5-carboxylate] | < 1000 nM
29 | COC(=O)C1(c2cc(C(C)(C)O)on2)CN=C(Nc2c3c(cc4c2CCC4)CCC3)O1 (single isomer, unassigned) [Example 72, methyl 2-((1,2,3,5,6,7-hexahydro-s-indacen-4-yl)amino)-5-(5-(2-hydroxypropan-2-yl)isoxazol-3-yl)-4,5-dihydrooxazole-5-carboxylate] | < 1000 nM
